pEC50, pIC50: −log10 of the molar value.
Tests used:
[1] = The toxicity was evaluated against KB cells using podophyllotoxin (ED50 0.2 nM) as a standard; format: functional; details: Homo sapiens, read-out: ED50 (the source's name)
[2] = system: Plasmodium falciparum; assay: In vitro inhibitory activity against Plasmodium falciparum; format: functional, organism-based
[3] = system: Trypanosoma cruzi; assay: (§1) In vitro Trypanosoma cruzi (TC); format: functional; details: read-out: ED50 (the source's name)
[4] = system: Trypanosoma cruzi; assay: as §1; format: functional, organism-based
[5] = The toxicity was evaluated against KB cells; format: functional; details: Homo sapiens, read-out: ED50 (the source's name)

CCCC(=O)Oc1c(OC)c(OC)cc2c1C(=O)[C@]1(OC)C=C[C@H]2N(c2ccccc2)O1
pEC50 [1]: 5.49
pIC50 [2]: 5.41
pEC50 [3]: < 4.17

COc1cc2c(c(OC(=O)c3ccc(F)cc3)c1OC)C(=O)[C@]1(OC)C=C[C@H]2N(c2ccccc2)O1
pEC50 [1]: 5.19
pIC50 [2]: 5.12
pEC50 [3]: 5.04

COc1ccc(C(=O)Oc2c(OC)c(OC)cc3c2C(=O)[C@]2(OC)C=C[C@H]3N(c3ccccc3)O2)cc1
pEC50 [1]: 4.88
pIC50 [2]: 5.18
pEC50 [3]: < 4.22

COc1cc2c(c(OC)c1OC)C(=O)[C@]1(OC)C=C[C@H]2N(c2ccccc2)O1
pEC50 [1]: > 6.10
pIC50 [2]: 5.05
pEC50 [3]: 4.19

COc1cc2c(c(O)c1OC)C(=O)[C@]1(OC)C=C[C@H]2N(c2ccccc2)O1
pEC50 [1]: > 6.10
pIC50 [2]: 5.27
pEC50 [3]: 5.37

COc1cc2c(c(OC(=O)c3ccccc3)c1OC)C(=O)[C@]1(OC)C=C[C@H]2N(c2ccccc2)O1
pEC50 [1]: 4.93
pIC50 [2]: 5.47
pEC50 [3]: < 4.20

COc1cc2c(c(OC(=O)COC(C)=O)c1OC)C(=O)[C@]1(OC)C=C[C@H]2N(c2ccccc2)O1
pEC50 [1]: 3.89
pIC50 [2]: 5.49
pEC50 [3]: < 4.19

COc1cc2c(c(OC(=O)c3ccc(Cl)cc3)c1OC)C(=O)[C@]1(OC)C=C[C@H]2N(c2ccccc2)O1
pEC50 [1]: 4.54
pIC50 [2]: < 4.23
pEC50 [3]: < 4.23

CCC(=O)Oc1c(OC)c(OC)cc2c1C(=O)[C@]1(OC)C=C[C@H]2N(c2ccccc2)O1
pEC50 [1]: > 6.15
pIC50 [2]: 5.18
pIC50 [4]: < 4.15

COc1cc2c(c(OC(C)=O)c1OC)C(=O)[C@]1(OC)C=C[C@H]2N(c2ccccc2)O1
pEC50 [1]: 5.20
pIC50 [2]: 5.28
pIC50 [4]: 4.62

COc1cc2c(c(OC(=O)c3ccccc3F)c1OC)C(=O)[C@]1(OC)C=C[C@H]2N(c2ccccc2)O1
pEC50 [1]: 5.11
pIC50 [2]: 5.20
pEC50 [3]: < 4.21

COc1cc2c(c(OC(=O)CN3C(=O)c4ccccc4C3=O)c1OC)C(=O)[C@]1(OC)C=C[C@H]2N(c2ccccc2)O1
pEC50 [1]: 4.05
pIC50 [2]: 5.21
pEC50 [3]: 4.92

O=C(Cn1ccnc1[N+](=O)[O-])NCc1ccccc1 [BENZNIDAZOLE]
pEC50 [3]: 5.15

COc1cc([C@@H]2c3cc4c(cc3[C@H](O)[C@H]3COC(=O)[C@H]23)OCO4)cc(OC)c1OC [PODOFILOX]
pEC50 [5]: 9.70
